Legend:
[1] = biological target: Gppcp-bound recombinant K-Ras4B G12C mutant protein (amino acids 1-169, C51S/C80L/C118S) (Homo sapiens, UniProt P01116, C118S/C51S/C80L/G12C); assay: KRASG12C binding assay (LC-MS, compound binding rate); settings: test compound final concentration 0.5 μM, 25° C., 1 hour
Method: As test compounds for the KRASG12C binding assay, the compounds obtained in the “Preparation of Compounds” section were used. Sample solutions each containing a test compound were prepared in the form of a 10 mM DMSO solution.
Gppcp-bound recombinant K-Ras4B G12C mutant protein (amino acids 1-169, C51S/C80L/C118S, SEQ ID NO:1) was diluted with a buffer (1×TBS, 0.1 mM TCEP, 0.25 mM MgCl2, 50 μM Gppcp) to prepare a 50 nM protein solution. K-Ras4B is the major splicing variant of K-Ras. Amino acid sequence of residues 1 to 150 including the compounds' binding region of K-Ras4B is exactly same as that of K-Ras4A, the other splicing variant (Oncotarget. 2016 Jul. 19; 7(29): 46717-46733). A sample solution containing 10 mM test compound was diluted ten-fold with DMSO to make a 1 mM sample solution, and then diluted twenty-fold with DMSO to make a 50 μM sample solution. 1 μL of a 50 μM sample solution was added to 100 μL of a 50 nM protein solution to adjust the final concentration of a test compound to be 0.5 μM in the mixture. The mixtures were stored in an incubator at 25° C. for 1 hour, and 10 μL of a 1×TBS solution containing 2% formic acid was added to stop the reaction, followed by LC-MS measurement. LC-MS measurement was performed using Xevo G2-S Q-Tof manufactured by Waters, and reverse-phase chromatography was performed with a desalting column. A mass spectrum of positive ions was obtained by electrospray. For a mass spectrum, a spectrum of polyvalent ions was collectively converted to a molecular weight by using OpenLynx software by the MaxEnt technique, and a compound binding rate was calculated from the ratio of the signal intensity of a peak that corresponds to the molecular weight of the protein to the signal intensity of a peak that corresponds to the molecular weight of the protein conjugated with the compound.
The binding assay of the test compounds was conducted at a final concentration of 0.5 μM. A binding rate of 80% or more is rated “A”, a binding rate of 60% or more and less than 80% is rated “B”, a binding rate of 40% or more and less than 60% is rated “C”, a binding rate of 20% or more and less than 40% is rated “D”, and a binding rate of less than 20% is rated “E”. N.D.=not determined. Binding rate % is the ratio of KRAS signal intensity at the molecular weight of one molecule adduct to the sum of all the KRAS signal intensity (unbound form and adducts) in mass spectrum. Thus, binding rate 100% means that only the one molecule adduct was observed without any unbound KRAS. The following tables show the results.

[2] = biological target: T1, interaction between recombinant K-Ras4B G12C mutant protein and cRAF RAS-binding domain (cRAF-RBD) (Homo sapiens, UniProt P01116, G12C); assay: Inhibitory activity on interaction between KRAS G12C and cRAF (Alpha technology); type: biochemical; settings: GMPPNP-bound KRAS G12C incubated with compound at 25° C. for 1 hour, then cRAF-RBD; Alpha signal
T1 construct: made in house; host or cells: E. coli
Method: Interaction between recombinant K-Ras4B G12C mutant protein (amino acids 1-169, SEQ ID NO:2) and cRAF RAS-binding domain (cRAF-RBD, amino acids 50-132, Jena Biosciences GmbH) was measured using Alpha technology (PerkinElmer Inc.).
Recombinant KRAS G12C protein with an N-terminal His-tag was expressed in E. coli and purified by affinity chromatography. To prepare GTP-bound form and GDP-bound form of KRAS G12C protein. 50 μM KRAS G12C protein was incubated with 1 mM GMPPNP (Guanosine-5′-[(β,γ)-imido]triphosphate. Tetralithium salt)(Jena Bioscience GmbH) and 1 mM GDP, respectively, in a loading buffer (20 mM Tris-HCl (pH 7.5), 50 mM NaCl, 1 mM DTT and 2.5 mM EDTA) for 1 hour on ice. After the incubation, MgCl2 was added to a final concentration of 10 mM, followed by incubation at room temperature for 30 minutes. The mixture was allowed to pass through a NAP-5 column to remove free nucleotides and purified, and the resultant nucleotide-bound KRAS G12C protein was used for compound evaluation.
For the measurement of the inhibitory activity of compounds on interaction between KRAS G12C and cRAF-RBD, GMPPNP-bound KRAS G12C protein was incubated with various concentrations of compound in a reaction buffer (20 mM Tris-HCl (pH 7.5), 100 mM NaCl, 1 mM MgCl2, 1 mM TCEP. 0.1% Tween 20) at 25° C. for 1 hour. After the incubation, recombinant cRAF-RBD and Alpha detection reagents were added and incubated at room temperature for 1.5 hours for binding. Interaction of KRAS G12C and cRAF-RBD was monitored by measuring Alpha signal. Inhibition % was calculated using the signal from the reaction without test compound (DMSO control) as 0% inhibition and the signal from the reaction using GDP-bound KRAS G12C in place of GMPPNP-bound KRAS G12C as 100% inhibition. IC50 values were calculated from dose titration curve using curve fitting by XLfit software (IDBS). The following tables show the results.

MIA PaCa-2 cells = assay: Growth inhibition activity on KRAS-G12C mutant cell line (MIA PaCa-2), CellTiter-Glo 3D; type: cell-based, human; settings: MIA PaCa-2, 3-day culture with compound
Method: MIA PaCa-2 cells (given by Sumitomo Dainippon Pharma Co., Ltd.), which are a KRAS-G12C mutant human pancreas cancer cell line, were suspended in a 10% fetal bovine serum-containing RPMI1640 medium (manufactured by Fujifilm Wako Pure Chemical Corporation.). The cell suspension was seeded into each well of a 384-well U bottom microplate and cultured in an incubator containing 5% CO2 gas at 37° C. for 1 day. The compounds obtained in the “Preparation of Compounds” section were used as test compounds and were dissolved in DMSO, respectively, and each test compound was diluted with DMSO to give a concentration 500 times the final concentration. The resultant solution of the test compound in DMSO was diluted with the medium used for suspending cells and added to each well of the cell-culture plate to give a DMSO final concentration of 0.2%, followed by culture in an incubator containing 5% CO2 gas at 37° C. for another 3 days. The cell count after 3-day culture in the presence of the test compound was measured using CellTiter-Glo 3D Reagent (manufactured by Promega Corporation). All wells were added with CellTiter-Glo 3D Reagent and mixed for 10 minutes. 30 minutes after mixing, luminescence was measured by a plate reader. The growth inhibition rate was calculated from the following equation, and the concentration of the test compound at which 50/o inhibition was achieved (IC50 (nM)) was determined. The following tables show the results.
[formula] • T: the emission intensity in a well into which a test compound was added. • C: the emission intensity in a well into which a test compound was not added.

In the case of `CO[C@H]1CC[C@H](NC/C=C/C(=O)Nc2c(F)cc(C(=O)c3ccc4c(-c5c(Br)cc6c(nc(C)n6C)c5Cl)cccn34)cc2F)CC1` [Example 31, (E)-N-(4-(8(6-bromo-4-chloro-1,2-dimethyl-1H-benzo[d]imidazol-5-yl)indolizine-3-carbonyl)-2,6-difluorophenyl)-4-(((1r,4r)-4-methoxycyclohexyl)amino)but-2-enamide], the binding rate [1] is reported as “A (A binding rate of 80% or more is rated “A”)”, the IC50 [2] is reported as 62 nM and the IC50 (MIA PaCa-2 cells; Homo sapiens, MIA PaCa-2, 72 h) is reported as 64 nM.
`COc1cc2c(nc(C)n2C)c(Cl)c1-c1cccn2c(C(=O)c3cc(F)c(NC(=O)/C=C/CN[C@H]4CC[C@H](OC)CC4)c(F)c3)ccc12` (single isomer, unassigned) [Example 35-2, (E)-N-(4-(8-(4-chloro-6-methoxy-1,2-dimethyl-1H-benzo[d]imidazol-5-yl)indolizine-3-carbonyl)-2,6-difluorophenyl)-4-(((1r,4r)-4-methoxycyclohexyl)amino)but-2-enamide] was tested, and the binding rate [1] was “A (A binding rate of 80% or more is rated “A”)”, the IC50 [2] was 53 nM and the IC50 (MIA PaCa-2 cells) was 73 nM.
In the case of `Cc1nc2cc(-c3cccn4c(C(=O)c5cc(F)c(NC(=O)/C=C/CNC67CCC(F)(CC6)CC7)c(F)c5)ccc34)c(C(F)(F)F)cc2n1C` [Example 85, (E)-N-(4-(8-(1,2-dimethyl-6-(trifluoromethyl)-1H-benzo[d]imidazol-5-yl)indolizine-3-carbonyl)-2,6-difluorophenyl)-4-((4-fluorobicyclo[2.2.2]octan-1-yl)amino)but-2-enamide], the binding rate [1] is reported as “A (A binding rate of 80% or more is rated “A”)”, the IC50 [2] is reported as 45 nM and the IC50 (MIA PaCa-2 cells; Homo sapiens, MIA PaCa-2, 72 h) is reported as 110 nM.
In the case of `CCc1nc2c(-c3c(C(F)(F)F)cc4c(nc(C)n4C)c3OC)cccn2c1C(=O)c1cc(F)c(NC(=O)/C=C/CN[C@H]2CC[C@H](OC)CC2)c(F)c1` (single isomer, unassigned) [Example 102-1, (E)-N-(4-(2-ethyl-8-(4-methoxy-1,2-dimethyl-6-(trifluoromethyl)-1H-benzo[d]imidazol-5-yl)imidazo[1,2-a]pyridine-3-carbonyl)-2,6-difluorophenyl)-4-(((1r,4r)-4-methoxycyclohexyl)amino)but-2-enamide], the binding rate [1] is reported as “A (A binding rate of 80% or more is rated “A”)”, the IC50 [2] is reported as 57.2 nM and the IC50 (MIA PaCa-2 cells) is reported as 20.1 nM.
With `COc1cc2c(nc(C)n2C)c(Cl)c1-c1cccn2c(C(=O)c3cc(F)c(NC(=O)/C=C/CN[C@H]4CC[C@H](OC)CC4)c(F)c3)ccc12` (single isomer, unassigned) [Example 35-1, (E)-N-(4-(8-(4-chloro-6-methoxy-1,2-dimethyl-1H-benzo[d]imidazol-5-yl)indolizine-3-carbonyl)-2,6-difluorophenyl)-4-(((1r,4r)-4-methoxycyclohexyl)amino)but-2-enamide] the binding rate [1] was “A (A binding rate of 80% or more is rated “A”)”, the IC50 [2] was 29 nM and the IC50 (MIA PaCa-2 cells) was 35 nM.
In the case of `Cc1cc2c(nc(CC(F)(F)F)n2C)c(Cl)c1-c1cccn2c(C(=O)c3cc(F)c(NC(=O)/C=C/CNC(C)(C)C)c(F)c3)ccc12` [Example 82, (E)-4-(tert-butylamino)-N-(4-(8-(4-chloro-1,6-dimethyl-2-(2,2,2-trifluoroethyl)-1H-benzo[d]imidazol-5-yl)indolizine-3-carbonyl)-2,6-difluorophenyl)but-2-enamide], the binding rate [1] is reported as “A (A binding rate of 80% or more is rated “A”)”, the IC50 [2] is reported as 96 nM and the IC50 (MIA PaCa-2 cells; Homo sapiens, MIA PaCa-2, 72 h) is reported as 260 nM.
`CO[C@H]1CC[C@H](NC/C=C/C(=O)Nc2c(F)cc(C(=O)c3ccc4c(-c5c(C)cc6c(ncn6C)c5Cl)cccn34)cc2F)CC1` (single isomer, unassigned) [Example 12-2, (E)-N-(4-(8-(4-chloro-1,6-dimethyl-1H-benzo[d]imidazol-5-yl)indolizine-3-carbonyl)-2,6-difluorophenyl)-4-(((1r,4r)-4-methoxycyclohexyl)amino)but-2-enamide] was tested, and the binding rate [1] was “B (a binding rate of 60% or more and less than 80% is rated “B”)”, the IC50 [2] was 160 nM and the IC50 (MIA PaCa-2 cells) was 270 nM.
For `Cc1nc2cc(-c3cccn4c(C(=O)c5cc(F)c(NC(=O)/C=C/CN[C@@H]6CCC[C@H](F)C6)c(F)c5)ccc34)c(C(F)(F)F)cc2n1C` (racemic) [Example 94, (E)-N-(4-(8-(1,2-dimethyl-6-(trifluoromethyl)-1H-benzo[d]imidazol-5-yl)indolizine-3-carbonyl)-2,6-difluorophenyl)-4-(((1R,3S)-3-fluorocyclohexyl)amino)but-2-enamide and (E)-N-(4-(8-(1,2-dimethyl-6-(trifluoromethyl)-1H-benzo[d]imidazol-5-yl)indolizine-3-carbonyl)-2,6-difluorophenyl-4-(((1S,3R)-3-fluorocyclohexyl)amino)but-2-enamide], the binding rate [1] was “A (A binding rate of 80% or more is rated “A”)”, the IC50 [2] was 83 nM and the IC50 (MIA PaCa-2 cells; Homo sapiens, MIA PaCa-2, 72 h) was 280 nM.
In the case of `COc1c(-c2cc(F)cn3c(C(=O)c4cc(F)c(NC(=O)/C=C/CNC5(C)CC5)c(F)c4)cnc23)c(C(F)(F)F)cc2c1nc(C)n2C` (single isomer, unassigned) [Example 112-1, (E)-N-(2,6-difluoro-4-(6-fluoro-8-(4-methoxy-1,2-dimethyl-6-(trifluoromethyl)-1H-benzo[d]imidazol-5-yl)imidazo[1,2-a]pyridine-3-carbonyl)phenyl)-4-((1-methylcyclopropyl)amino)but-2-enamide], the IC50 [2] is reported as 20.2 nM and the IC50 (MIA PaCa-2 cells) is reported as 42.6 nM.

Reference: patent US20240246968A1, “SMALL MOLECULE INHIBITORS OF KRAS G12C MUTANT” (Merck Sharp & Dohme LLC, priority 2021, published 2024)
